Data from article PMC7614683, “A small molecule PI3Kα activator for cardioprotection and neuroregeneration” (Nature, 2023).
Like-named read-outs stand apart in the source and are kept apart here.

Experiments:
LCK = LCK (Homo sapiens, UniProt P06239); assay: SelectScreen kinase profiling, LCK; type: biochemical
Method: 133 protein kinases and 7 lipid kinases were counterscreened, with 1938 used at 1 μM, using the Adapta, Lantha and Z-LYTE assays (SelectScreen Kinase Profiling Service; Thermofisher – experimental details of these assays can be found here: https://www.thermofisher.com/uk/en/home/industrial/pharma-biopharma/drug-discovery-development/target-and-lead-identification-and-validation/kinasebiology/kinase-activity-assays.html. The tree represention in KinMap[59] generated courtesy of Cell Signaling Technology, Inc. (www.cellsignal.com). mTORC1 (mTOR/RAPTOR/LST8) protein complex and ATM kinase and substrates were produced as previously described[57],[60]. Screening of 1938 was conducted using SuperSep Phos-Tag 50 μmol/l 100 x 100 x 6.6 mm 17-well (192-18001/199-18011) gels. For ATM assays, 100 nM ATM was incubated for 30 min at 30°C with 5 μM GST-p53 and 1 mM ATP, in the absence or presence of 200 μM 1938 in ATM Kinase Buffer (50 mM HEPES pH 7.5, 100 mM NaCl, 10% glycerol, 2 mM […], 5 mM MgCl2). As a positive control for ATM activation, the same reaction was carried out with 100 nM ATM/5 μM GST-p53/1 mM ATP in the presence of 100 nM Mre11-Rad50-Nbs1 (MRN) complex, a known activator of ATM[61]. For mTORC1 assays, 50 nM mTORC1 complex (mTOR/LST8/RAPTOR) was incubated for 3 h at 30°C with 15 μM 4E-BP1, 10 mM MgCl2 and 250 μM ATP, in the absence or presence of 200 μM 1938. As a ‘positive’ control, a higher concentration (150 nM) of mTORC1 complex (mTOR/LST8/RAPTOR) was incubated for 3 h at 30°C with 15 μM 4E-BP1, 10 mM MgCl2 and 250 μM ATP. Kinase reactions were quenched by addition of SDS-PAGE Loading Buffer (as per manufacturer’s instructions) and freezing at -20°C before being run on the Phos-tag gels at 150 V for 90 min. Gels were then stained using InstantBlue™ Coomassie, and quantified using BioRad Image Lab Software. Kinase assays were carried out in triplicate.

PI3Kα-KO MEFs = assay: Mass spectrometry-based phosphoproteomics, PI3Kα-KO MEFs; type: cell-based, mouse
Method: PI3Kα-WT and PI3Kα-KO MEFs, grown in 15 cm dishes, were serum-starved overnight in DMEM with 1% penicillin-streptomycin and stimulated by the addition of 0.05% DMSO, 5 μM 1938 in final 0.05% DMSO or 100 nM insulin (Sigma #I5016) for 15 min or 4 h. Cells were lysed in 500 μl urea lysis buffer [50 mM triethylammonium bicarbonate, 8 M urea, cOmplete™ EDTA-free protease inhibitor cocktail (1:50 dilution) (Roche #11873580001), 1 PhosSTOP tablet (Roche #4906845001) per 10 ml of lysis buffer, 1 mM sodium orthovanadate] and lysates sonicated until clear for ~10 min with cooling breaks on ice. Protein concentration was measured using a BCA protein assay (Pierce #23227). 300 μg of protein was reduced with 5 mM Tris(2-carboxyethyl)phosphine hydrochloride (Sigma #C4706) at 37°C for 20 min and alkylated using 10 mM 2-chloroacetamide (Sigma #22790) for 20 min at room temperature in the dark. Proteins were digested with LysC (#129-02541; FUJIFILM Wako Chemicals, Osaka, Japan) for 3.5 h at 30°C. Samples were then diluted with 50 mM triethylammonium bicarbonate (Sigma #T7408) to reduce the urea concentration to 1.5 M, followed by an overnight peptide digestion with trypsin (Promega #V5113) at 37°C. Digest reactions were quenched by the addition of 10% trifluoroacetic acid (EMD Millipore #302031-M) to a final pH of 2.0. Sample desalting was performed using 35-350 μg C18 columns (HMM S18V; The Nest Group, Inc., Southborough, MA, USA) according to the manufacturer’ specifications. TiO2 (Hichrome Titansphere TiO2, 10 μm capacity, 100 mg, GL Sciences #5020-75010) was used for phosphoenrichment. Following peptide loading onto TiO2, the beads were sequentially washed with 1 M glycolic acid (Sigma #124737)/80% acetonitrile/5% trifluoroacetic acid, followed by 80% acetonitrile/0.2% trifluoroacetic acid and 20% acetonitrile before elution with 5% ammonium hydroxide. Enriched samples were desalted using 7-70 μg C18 columns (HUM S18V; The Nest Group, Inc., Southborough, MA, USA) according to the manufacturer’s specifications. Dried phosphopeptide samples were stored at -80°C and resuspended in 10% formic acid immediately prior to analysis. nLC-MS/MS was performed on a Q-Exactive Orbitrap Plus interfaced to a NANOSPRAY FLEX ion source and coupled to an Easy-nLC 1000 (Thermo Scientific). Fifty percent of each sample was analysed as 10 μl injections. Peptides were separated on a 27 cm fused silica emitter, 75 μm diameter, packed in-house with Reprosil-Pur 200 C18-AQ, 2.4 μm resin (Dr. Maisch, Ammerbuch-Entringen, Germany) using a linear gradient from 5% to 30% acetonitrile/0.1% formic acid over 180 min, at a flow rate of 250 nl/min. Peptides were ionised by electrospray ionisation using 1.9 kV applied immediately prior to the analytical column via a microtee built into the nanospray source with the ion transfer tube heated to 320°C and the S-lens set to 60%. Precursor ions were measured in a data-dependent mode in the orbitrap analyser at a resolution of 70,000 and a target value of 3e6 ions. The ten most intense ions from each MS1 scan were isolated, fragmented in the HCD cell, and measured in the Orbitrap at a resolution of 17,500.
Raw data were analysed with MaxQuant[72] (version 1.5.5.1) where they were searched against the mouse UniProt database (http://www.uniprot.org/, downloaded 04/12/2018) using default settings. Carbamidomethylation of cysteines was set as fixed modification, and oxidation of methionines, acetylation at protein N-termini, phosphorylation (on S, T or Y) were set as variable modifications. Enzyme specificity was set to trypsin with maximally 2 missed cleavages allowed. To ensure high confidence identifications, peptide-spectral matches, peptides, and proteins were filtered at a less than 1% false discovery rate (FDR). Label-free quantification in MaxQuant was used with a LFQ minimum ratio count of 2, Fast LFQ selected and the ‘skip normalisation’ option selected. […]

Chain of LCK (P06239 whole entry): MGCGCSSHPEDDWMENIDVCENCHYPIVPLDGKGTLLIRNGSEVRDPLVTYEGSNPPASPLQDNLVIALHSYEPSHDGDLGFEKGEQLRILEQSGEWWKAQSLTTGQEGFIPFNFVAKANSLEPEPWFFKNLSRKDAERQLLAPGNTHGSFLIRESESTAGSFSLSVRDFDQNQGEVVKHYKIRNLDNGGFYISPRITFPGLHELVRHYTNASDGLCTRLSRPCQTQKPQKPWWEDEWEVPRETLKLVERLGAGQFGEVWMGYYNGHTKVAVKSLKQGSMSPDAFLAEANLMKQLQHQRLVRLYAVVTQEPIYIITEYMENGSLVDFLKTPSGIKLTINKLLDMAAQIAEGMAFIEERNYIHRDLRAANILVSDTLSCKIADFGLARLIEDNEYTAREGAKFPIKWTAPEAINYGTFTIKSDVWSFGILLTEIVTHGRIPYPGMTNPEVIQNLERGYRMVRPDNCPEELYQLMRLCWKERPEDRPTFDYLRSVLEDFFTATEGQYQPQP

CCN1CCN(c2ccc(Nc3cc(Nc4cccc5c4N(C(C)=O)CC5)ccn3)cc2)CC1 [Compound 1938]
inhibition at 1 µM (LCK; read-out: % Inhibition Point 1): 60%
inhibition at 1 µM (LCK; read-out: % Inhibition Point 2): 57%
inhibition at 1 µM (LCK; read-out: % Inhibition mean): 58%
signalling impact (phosphoproteomics) (PI3Kα-KO MEFs; PI3Kα-KO MEFs, 1938 5 μM): little signalling impact
log2FC, PI3Ka KO 15’ 1938 vs PI3Ka KO DMSO (PI3Kα-KO MEFs; phosphosite Cask_S544): -0.1046
log2FC, PI3Ka KO 4 h 1938 vs PI3Ka KO DMSO (PI3Kα-KO MEFs; phosphosite Cask_S544): NegInf
log2FC, PI3Ka KO 15’ 1938 vs PI3Ka KO DMSO (PI3Kα-KO MEFs; phosphosite Cask_S545): 0.1395
log2FC, PI3Ka KO 4 h 1938 vs PI3Ka KO DMSO (PI3Kα-KO MEFs; phosphosite Cask_S545): 0.1333
log2FC, PI3Ka KO 15’ 1938 vs PI3Ka KO DMSO (PI3Kα-KO MEFs; phosphosite Gm42715_S1683): Inf
log2FC, PI3Ka KO 4 h 1938 vs PI3Ka KO DMSO (PI3Kα-KO MEFs; phosphosite Gm42715_S1683): Inf
